Reference: paper PMC4260628 (Chembiochem : a European journal of chemical biology, 2014)
pKd: −log10 of the molar value. Like-named read-outs stand apart in the source and are kept apart here.

What was measured:
TxtE [1] = molecular target: T1, TxtE (Streptomyces scabiei, UniProt C9ZDC6); format: binding, Streptomyces scabies; details: TxtE in E. coli cell lysate 1.9 – 2.8 μM, substrate 250–500 μM, 15 min, pH 8
TxtE [2] = molecular target: T1, TxtE; details: read-out: previously reported Kd; TxtE with L-tryptophan; cited from earlier work
TxtE [3] = molecular target: T1, TxtE; assay: biochemical; format: binding, Streptomyces scabies

## N[C@@H](Cc1c[nH]c2ccccc12)C(=O)O [Substrate 1, L-tryptophan]
TxtE [1]
  Spectral Shift: type I
TxtE [2]
  pKd: 4.22 to 4.36
TxtE [3]
  pKd: 4.41
